Data published in ChEMBL document CHEMBL5579829, “Discovery of a potent CDKs/FLT3 PROTAC with enhanced differentiation and proliferation inhibition for AML” (Eur J Med Chem, 2024).
The source made the active and inactive calls. The calls are words filed in the database; no cut-off is given here.

Assays:
[1] = target: T1, Protein cereblon/Cyclin-dependent kinase 2 (Homo sapiens, UniProt P24941+Q96SW2); assay: Protac activity at CRBN/CDK2 in human HL-60 cells assessed as induction of CDK2 degradation by Western blot analysis relative to control; format: cell-based
[2] = system: HL-60; assay: Antiproliferative activity against human HL-60 cells measured after 1 to 3 days by CCK-8 assay; format: functional, cell-based
[3] = target: T1, Protein cereblon/Cyclin-dependent kinase 2; assay: Protac activity at CRBN/CDK2 in human HL-60 cells assessed as induction of CDK2 degradation measured after 24 hrs by Western blot analysis relative to control; format: cell-based
[4] = target: T1, Protein cereblon/Cyclin-dependent kinase 2; assay: Protac activity at CRBN/CDK2 in human HL-60 cells assessed as induction of CDK2 degradation at 10 nM measured at 12 hrs by Western blot analysis; format: cell-based
[5] = target: T1, Protein cereblon/Cyclin-dependent kinase 2; assay: Protac activity at CRBN/CDK2 in human HL-60 cells assessed as induction of CDK2 degradation at 10 nM measured after 24 hrs in presence of proteasome inhibitor MG132 by Western blot analysis; format: cell-based
[6] = target: T1, Protein cereblon/Cyclin-dependent kinase 2; assay: Protac activity at CRBN/CDK2 in human HL-60 cells assessed as induction of CDK2 degradation at 10 nM measured after 24 hrs in presence of NEDD8-activated E1 enzyme inhibitor MLN4924 by Western blot analysis; format: cell-based
[7] = target: T1, Protein cereblon/Cyclin-dependent kinase 2; assay: Protac activity at CRBN/CDK2 in human HL-60 cells assessed as induction of CDK2 degradation at 10 nM measured after 24 hrs in presence of CRBN ligand thalidomide by Western blot analysis; format: cell-based
[8] = system: HL-60; assay: Induction of pro-differentiation of human HL-60 cells assessed as increase in CD11b expression measured after 3 to 5 days by immunostaining-based flow cytometry; format: functional, cell-based; conditions: dose 1-6.25 nM, time 3-5 day
[9] = system: HL-60; assay: Induction of pro-differentiation of human HL-60 cells assessed as CD11b expression at 1 nM measured after 3 days by immunostaining-based flow cytometry (reference value: 8.32 to 10.55%); format: functional; conditions: time 3 day
[10] = system: HL-60; assay: Induction of pro-differentiation of human HL-60 cells assessed as CD11b expression at 2 nM measured after 5 days by immunostaining-based flow cytometry (reference value: 10.08 to 10.33%); format: functional; conditions: time 5 day
[11] = system: HL-60; assay: Induction of pro-differentiation of human HL-60 cells assessed as increase in CD11b expression at 6.25 nM measured after 3 days by immunostaining-based flow cytometry relative to control; format: functional; conditions: time 3 day
[12] = system: HL-60; assay: Induction of pro-differentiation of human HL-60 cells assessed as increase in CD11b expression at 6.25 nM measured after 5 days by immunostaining-based flow cytometry relative to 500 nM CPS2; format: functional; conditions: time 5 day
[13] = system: MV4-11; assay: Antiproliferative activity against human MV4-11 cells measured after 1 to 3 days by CCK-8 assay; format: functional, cell-based
[14] = system: THP-1; assay: Antiproliferative activity against human THP-1 cells measured after 1 to 3 days by CCK-8 assay; format: functional, cell-based
[15] = system: Kasumi 1; assay: Antiproliferative activity against human Kasumi 1 cells measured after 1 to 3 days by CCK-8 assay; format: functional, cell-based
[16] = system: MOLM-13; assay: Antiproliferative activity against human MOLM-13 cells measured after 1 to 3 days by CCK-8 assay; format: functional, cell-based
[17] = system: NB-4; assay: Antiproliferative activity against human NB4 cells measured after 1 to 3 days by CCK-8 assay; format: functional, cell-based
[18] = target: T1, Protein cereblon/Cyclin-dependent kinase 2; assay: Protac activity at CRBN/CDK2 in human HL-60 cells assessed as induction of CDK2 degradation measured after 3 days by Western blot analysis; format: cell-based
[19] = target: T2, Protein cereblon/Cyclin-dependent kinase 6 (Homo sapiens, UniProt Q00534+Q96SW2); assay: Protac activity at CRBN/CDK6 in human HL-60 cells assessed as induction of CDK6 degradation measured after 3 days by Western blot analysis; format: cell-based
Target sequence in this assay (Q00534 whole entry): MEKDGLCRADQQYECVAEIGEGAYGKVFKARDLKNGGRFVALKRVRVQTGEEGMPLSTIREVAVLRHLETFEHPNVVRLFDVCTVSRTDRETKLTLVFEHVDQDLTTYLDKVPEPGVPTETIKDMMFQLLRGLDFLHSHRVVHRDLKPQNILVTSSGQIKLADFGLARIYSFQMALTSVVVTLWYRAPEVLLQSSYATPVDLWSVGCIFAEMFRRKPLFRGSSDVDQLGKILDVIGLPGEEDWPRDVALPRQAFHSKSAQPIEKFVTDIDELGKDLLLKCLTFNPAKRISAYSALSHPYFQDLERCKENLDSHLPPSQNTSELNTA
Target sequence in this assay (Q96SW2 whole entry): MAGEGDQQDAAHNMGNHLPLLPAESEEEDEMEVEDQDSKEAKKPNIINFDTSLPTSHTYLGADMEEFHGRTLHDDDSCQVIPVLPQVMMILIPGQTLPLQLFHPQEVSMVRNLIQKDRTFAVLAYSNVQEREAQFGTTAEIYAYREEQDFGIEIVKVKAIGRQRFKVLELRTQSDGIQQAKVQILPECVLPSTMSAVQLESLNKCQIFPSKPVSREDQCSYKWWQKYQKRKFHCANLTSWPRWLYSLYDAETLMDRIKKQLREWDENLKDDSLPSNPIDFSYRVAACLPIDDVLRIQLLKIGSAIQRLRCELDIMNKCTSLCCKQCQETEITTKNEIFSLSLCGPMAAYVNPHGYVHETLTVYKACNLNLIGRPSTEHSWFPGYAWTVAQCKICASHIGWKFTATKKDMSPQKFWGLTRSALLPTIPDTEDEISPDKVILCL

[20] = target: T1, Protein cereblon/Cyclin-dependent kinase 2; assay: Protac activity at CRBN/CDK2 in human MV4-11 cells assessed as induction of CDK2 degradation at 2 to 32 nM measured after 3 days by Western blot analysis; format: cell-based; conditions: dose 2-32 nM, time 3.0 day
[21] = target: Protein cereblon/Cyclin-dependent kinase 4 (Homo sapiens, UniProt P11802+Q96SW2); assay: Protac activity at CRBN/CDK4 in human MV4-11 cells assessed as induction of CDK4 degradation at 2 to 32 nM measured after 3 days by Western blot analysis; format: cell-based; conditions: dose 2-32 nM, time 3.0 day
Protein cereblon/Cyclin-dependent kinase 4, sequence (P11802 2-303 limits assumed): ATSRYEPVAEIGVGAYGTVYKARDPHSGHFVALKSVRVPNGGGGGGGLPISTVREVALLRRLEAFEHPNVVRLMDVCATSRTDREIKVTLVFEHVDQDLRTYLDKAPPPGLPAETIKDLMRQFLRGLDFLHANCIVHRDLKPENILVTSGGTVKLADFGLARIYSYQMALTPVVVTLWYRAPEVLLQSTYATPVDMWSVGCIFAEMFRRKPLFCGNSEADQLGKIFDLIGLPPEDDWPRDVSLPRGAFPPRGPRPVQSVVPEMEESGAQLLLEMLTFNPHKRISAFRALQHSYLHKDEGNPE
Protein cereblon/Cyclin-dependent kinase 4, sequence (Q96SW2 whole entry partner): as the sequence (Q96SW2 whole entry) above

[22] = target: T3, Protein cereblon/Cyclin-dependent kinase 9 (Homo sapiens, UniProt P50750+Q96SW2); assay: Protac activity at CRBN/CDK9 in human MV4-11 cells assessed as induction of CDK9 degradation at 2 to 32 nM measured after 3 days by Western blot analysis; format: cell-based; conditions: dose 2-32 nM, time 3.0 day
T3 sequence (P50750 whole entry, looked up): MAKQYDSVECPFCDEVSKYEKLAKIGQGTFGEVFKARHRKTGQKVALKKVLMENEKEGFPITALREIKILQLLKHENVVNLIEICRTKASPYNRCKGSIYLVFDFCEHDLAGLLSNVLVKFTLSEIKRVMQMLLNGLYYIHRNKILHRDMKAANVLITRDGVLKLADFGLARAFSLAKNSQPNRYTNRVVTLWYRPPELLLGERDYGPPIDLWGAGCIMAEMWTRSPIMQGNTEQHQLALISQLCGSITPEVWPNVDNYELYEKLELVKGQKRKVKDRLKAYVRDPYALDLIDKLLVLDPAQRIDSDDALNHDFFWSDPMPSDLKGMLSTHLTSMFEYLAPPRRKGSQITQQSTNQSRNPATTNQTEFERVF
T3 sequence (Q96SW2 whole entry, looked up): as the sequence (Q96SW2 whole entry) above

[23] = target: T1, Protein cereblon/Cyclin-dependent kinase 2; assay: Protac activity at CRBN/CDK2 in human Kasumi 1 cells assessed as induction of CDK2 degradation at 2 to 32 nM measured after 3 days by Western blot analysis; format: cell-based; conditions: dose 2-32 nM, time 3.0 day
[24] = target: T2, Protein cereblon/Cyclin-dependent kinase 6; assay: Protac activity at CRBN/CDK6 in human Kasumi 1 cells assessed as induction of CDK6 degradation at 2 to 32 nM measured after 3 days by Western blot analysis; format: cell-based; conditions: dose 2-32 nM, time 3.0 day
Target sequence in this assay (Q00534 whole entry, looked up): as the sequence (Q00534 whole entry) above
Target sequence in this assay (Q96SW2 whole entry, looked up): as the sequence (Q96SW2 whole entry) above

[25] = target: T3, Protein cereblon/Cyclin-dependent kinase 9; assay: Protac activity at CRBN/CDK9 in human Kasumi 1 cells assessed as induction of CDK9 degradation at 2 to 32 nM measured after 3 days by Western blot analysis; format: cell-based; conditions: dose 2-32 nM, time 3.0 day
[26] = system: Protein cereblon/Receptor-type tyrosine-protein kinase FLT3 (Homo sapiens), P36888+Q96SW2 [UNDEFINED MUTATION]; assay: Protac activity at CRBN/FLT3-ITD mutant in human Kasumi 1 cells assessed as induction of FLT3 degradation at 2 to 32 nM measured after 3 days by Western blot analysis; format: cell-based; conditions: dose 2-32 nM, time 3.0 day
Protein cereblon/Receptor-type tyrosine-protein kinase FLT3 (Homo sapiens), P36888+Q96SW2 [UNDEFINED MUTATION], sequence (P36888 whole entry, looked up, change not shown): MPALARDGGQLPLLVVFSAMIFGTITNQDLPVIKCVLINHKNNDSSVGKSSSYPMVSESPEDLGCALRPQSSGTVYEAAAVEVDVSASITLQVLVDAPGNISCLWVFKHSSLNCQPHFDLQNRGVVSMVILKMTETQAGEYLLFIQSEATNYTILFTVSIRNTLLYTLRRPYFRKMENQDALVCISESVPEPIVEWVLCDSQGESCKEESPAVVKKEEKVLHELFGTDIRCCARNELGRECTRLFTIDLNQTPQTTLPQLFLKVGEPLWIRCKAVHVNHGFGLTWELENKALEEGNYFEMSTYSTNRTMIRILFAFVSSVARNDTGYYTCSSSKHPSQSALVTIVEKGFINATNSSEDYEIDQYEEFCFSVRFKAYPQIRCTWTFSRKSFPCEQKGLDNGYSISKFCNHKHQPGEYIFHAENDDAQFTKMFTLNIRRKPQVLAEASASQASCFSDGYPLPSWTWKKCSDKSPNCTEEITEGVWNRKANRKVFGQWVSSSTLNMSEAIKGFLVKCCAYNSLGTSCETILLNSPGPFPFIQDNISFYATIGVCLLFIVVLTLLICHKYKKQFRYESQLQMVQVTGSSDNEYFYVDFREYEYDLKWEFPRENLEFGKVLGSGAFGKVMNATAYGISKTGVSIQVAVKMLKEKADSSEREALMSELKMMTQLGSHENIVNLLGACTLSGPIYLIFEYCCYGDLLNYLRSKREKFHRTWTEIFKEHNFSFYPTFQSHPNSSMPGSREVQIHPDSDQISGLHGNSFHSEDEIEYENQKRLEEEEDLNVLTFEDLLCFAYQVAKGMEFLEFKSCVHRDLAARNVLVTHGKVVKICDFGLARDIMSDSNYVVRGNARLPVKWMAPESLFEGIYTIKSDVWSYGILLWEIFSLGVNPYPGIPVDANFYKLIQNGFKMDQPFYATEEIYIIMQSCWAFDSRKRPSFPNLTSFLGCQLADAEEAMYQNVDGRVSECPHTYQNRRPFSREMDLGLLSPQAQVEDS
Protein cereblon/Receptor-type tyrosine-protein kinase FLT3 (Homo sapiens), P36888+Q96SW2 [UNDEFINED MUTATION], sequence (Q96SW2 whole entry, looked up, change not shown): as the sequence (Q96SW2 whole entry) above

[27] = target: T2, Protein cereblon/Cyclin-dependent kinase 6; assay: Protac activity at CRBN/CDK6 in human THP-1 cells assessed as induction of CDK6 degradation at 4 to 64 nM measured after 3 days by Western blot analysis; format: cell-based; conditions: dose 4-64 nM, time 3.0 day
Target sequence in this assay (Q00534 whole entry, looked up): as the sequence (Q00534 whole entry) above
Target sequence in this assay (Q96SW2 whole entry, looked up): as the sequence (Q96SW2 whole entry) above

[28] = target: T3, Protein cereblon/Cyclin-dependent kinase 9; assay: Protac activity at CRBN/CDK9 in human THP-1 cells assessed as induction of CDK9 degradation at 4 to 64 nM measured after 3 days by Western blot analysis; format: cell-based; conditions: dose 4-64 nM, time 3.0 day
[29] = system: Protein cereblon/Receptor-type tyrosine-protein kinase FLT3 (Homo sapiens), P36888+Q96SW2 [UNDEFINED MUTATION]; assay: Protac activity at CRBN/FLT3-ITD mutant in human THP-1 cells assessed as induction of FLT3 degradation at 4 to 64 nM measured after 3 days by Western blot analysis; format: cell-based; conditions: dose 4-64 nM, time 3.0 day
[30] = target: T4, Protein cereblon/Cyclin-dependent kinase 1 (Homo sapiens) (UniProt P06493+Q96SW2); assay: Protac activity at CRBN/CDK1 in human THP-1 cells assessed as induction of CDK1 degradation at 4 to 64 nM measured after 3 days by Western blot analysis; format: cell-based; conditions: dose 4-64 nM, time 3.0 day
T4 sequence (P06493 whole entry, looked up): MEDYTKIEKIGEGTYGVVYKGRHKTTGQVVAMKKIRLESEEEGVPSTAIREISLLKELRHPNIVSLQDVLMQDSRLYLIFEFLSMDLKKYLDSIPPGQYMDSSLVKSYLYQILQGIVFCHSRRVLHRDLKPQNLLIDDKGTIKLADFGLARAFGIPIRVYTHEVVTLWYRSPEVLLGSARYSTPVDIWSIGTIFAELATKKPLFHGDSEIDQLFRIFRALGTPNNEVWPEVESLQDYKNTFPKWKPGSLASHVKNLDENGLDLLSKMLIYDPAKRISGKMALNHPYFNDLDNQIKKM
T4 sequence (Q96SW2 whole entry, looked up): as the sequence (Q96SW2 whole entry) above

[31] = target: T5, Protein cereblon/Cyclin-dependent kinase 5 (Homo sapiens) (UniProt Q00535+Q96SW2); assay: Protac activity at CRBN/CDK5 in human HL-60 cells assessed as induction of CDK5 degradation at 4 to 64 nM measured after 3 days by Western blot analysis; format: cell-based; conditions: dose 4-64 nM, time 3.0 day
T5 sequence (Q00535 whole entry, looked up): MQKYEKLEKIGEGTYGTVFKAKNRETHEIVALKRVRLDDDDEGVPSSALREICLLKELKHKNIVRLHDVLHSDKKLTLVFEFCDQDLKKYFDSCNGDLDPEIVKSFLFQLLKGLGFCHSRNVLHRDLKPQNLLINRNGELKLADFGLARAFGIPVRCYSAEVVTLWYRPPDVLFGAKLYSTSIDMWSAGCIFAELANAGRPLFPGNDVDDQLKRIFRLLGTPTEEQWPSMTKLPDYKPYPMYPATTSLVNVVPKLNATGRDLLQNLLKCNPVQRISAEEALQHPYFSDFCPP
T5 sequence (Q96SW2 whole entry, looked up): as the sequence (Q96SW2 whole entry) above

[32] = target: T5, Protein cereblon/Cyclin-dependent kinase 5 (Homo sapiens); assay: Protac activity at CRBN/CDK5 in human MV4-11 cells assessed as induction of CDK5 degradation at 2 to 32 nM measured after 3 days by Western blot analysis; format: cell-based; conditions: dose 2-32 nM, time 3.0 day
[33] = target: T4, Protein cereblon/Cyclin-dependent kinase 1 (Homo sapiens); assay: Protac activity at CRBN/CDK1 in human Kasumi 1 cells assessed as induction of CDK1 degradation at 2 to 32 nM measured after 3 days by Western blot analysis; format: cell-based; conditions: dose 2-32 nM, time 3.0 day

Question: For `O=C1CCC(N2C(=O)c3ccc(N4CCC(CN5CCN(Cc6ccc(NC(=O)c7n[nH]cc7Nc7ncnc8[nH]ccc78)cc6)CC5)CC4)cc3C2=O)C(=O)N1` (stereo not drawn), which Emax [1] is on record?
Answer: Its Emax is 81.9%.

Question: And the IC50 [2]?
Answer: Its IC50 is 10.5 nM.

Question: And the Emax [3]?
Answer: The Emax was 86.8%.

Question: What about the Activity [4] of the same compound?
Answer: Its Activity is “Active”.

Question: And the Activity [5]?
Answer: Its Activity is “inactive”.

Question: And the Activity [6]?
Answer: The Activity was “inactive”.

Question: And the Activity [7]?
Answer: Its Activity is “inactive”.

Question: What about the Activity [8] of the same compound?
Answer: The Activity was “Dose-Dependent Effect”.

Question: What about the Activity [9] of the same compound?
Answer: Its Activity is 23.74%.

Question: And the Activity [10]?
Answer: Its Activity is 36.57%.

Question: And the “fold change (FC)” value [11]?
Answer: The value was 5.7.

Question: And the “fold change (FC)” value [12]?
Answer: The value was 2.1.

Question: What about the IC50 [13] of the same compound?
Answer: The IC50 was 2.9 nM.

Question: What about the IC50 [14] of the same compound?
Answer: The IC50 was 37.1 nM.

Question: And the IC50 [15]?
Answer: The IC50 was 3.99 nM.

Question: And the IC50 [16]?
Answer: The IC50 was 4.52 nM.

Question: And the IC50 [17]?
Answer: Its IC50 is 4.94 nM.

Question: What about the DC50 [18] of the same compound?
Answer: Its DC50 is 4.74 nM.

Question: And the DC50 [19]?
Answer: The DC50 was 2.71 nM.

Question: What about the Activity [20] of the same compound?
Answer: Its Activity is “Active”.

Question: What about the Activity [21] of the same compound?
Answer: Its Activity is “Active”.

Question: And the Activity [22]?
Answer: Its Activity is “Active”.

Question: What about the Activity [23] of the same compound?
Answer: Its Activity is “Active”.

Question: And the Activity [24]?
Answer: Its Activity is “Active”.

Question: What about the Activity [25] of the same compound?
Answer: The Activity was “Active”.

Question: What about the Activity [26] of the same compound?
Answer: The Activity was “Active”.

Question: And the Activity [27]?
Answer: Its Activity is “Active”.

Question: And the Activity [28]?
Answer: The Activity was “Active”.

Question: What about the Activity [29] of the same compound?
Answer: The Activity was “Active”.

Question: And the Activity [30]?
Answer: Its Activity is “inactive”.

Question: And the Activity [31]?
Answer: Its Activity is “inactive”.

Question: What about the Activity [32] of the same compound?
Answer: Its Activity is “inactive”.

Question: What about the Activity [33] of the same compound?
Answer: The Activity was “inactive”.
